Data as given in ChEMBL document CHEMBL1156994, “Chemopreventive activities of etodolac and oxyphenbutazone against mouse skin carcinogenesis” (Bioorg Med Chem Lett, 2010).

Legend:
Mus musculus [1] = experiment: Inhibition of DMBA-induced/TPA-promoted skin carcinogenesis in ICR mouse assessed as reduction in tumor burden at 0.0025% topically applied qd treated one week before DMBA-TPA challenge after 20 weeks relative to control; type: functional
Mus musculus [2] = experiment: Toxicity in ICR mouse at 0.0025%, po; type: organism-based; details: in vivo
Mus musculus [3] = experiment: Inhibition of peroxynitrite-induced/TPA promoted skin carcinogenesis in HOS-HR-1 mouse assessed as decrease in tumor burdon at 0.0025%, po treated one week before peroxynitrite-TPA challenge after 20 weeks relative to control; type: functional
Mus musculus [4] = experiment: Inhibition of peroxynitrite-induced/TPA promoted skin carcinogenesis in HOS-HR-1 mouse assessed as decrease in tumor incidence at 0.0025%, po treated one week before peroxynitrite-TPA challenge after 20 weeks relative to control; type: functional
Mus musculus [5] = experiment: Toxicity in HOS-HR-1 mouse at 0.0025%, po; type: organism-based; details: in vivo
Mus musculus [6] = experiment: Inhibition of peroxynitrite-induced/TPA promoted skin carcinogenesis in HOS-HR-1 mouse assessed as increase in tumor latency period at 0.0025%, po treated one week before peroxynitrite-TPA challenge after 20 weeks relative to control; type: functional

Row | SMILES | inhibition (INH) (Mus musculus [1]) [%] | Activity (Mus musculus [2]) | inhibition (INH) (Mus musculus [3]) [%] | inhibition (INH) (Mus musculus [4]) [%] | Activity (Mus musculus [5]) | inhibition (INH) (Mus musculus [6]) [%]
1 | CCc1cccc2c3c([nH]c12)C(CC)(CC(=O)O)OCC3 (stereo unspecified) [ETODOLAC] | 40 | Non-toxic |  |  |  | 
2 | CCCCC1C(=O)N(c2ccccc2)N(c2ccc(O)cc2)C1=O (stereo unspecified) [OXYPHENBUTAZONE ANHYDROUS] |  |  | >50 | >20 | Non-toxic | 29
